Here are results for 6 compounds from patent publication US7229984B2, “Dibenzoxazepinone derivatives and uses thereof” (Roche Palo Alto LLC, priority 2004, dated 2007).

What is called melting point is the temperature, or range, at which the solid turns liquid.

The target of series [1] is T1, recombinant human 5-HT2A receptor (Homo sapiens, UniProt P28223).
T1 construct: expressed in transfected cells; membranes
The experiment in a line: Radioligand binding, [3H]Ketanserin competition in CHO-K1 cell membranes. Conditions: [3H]Ketanserin displacement, pH 7.4, 32° C., approximate value, read-out: pKi for 5-HT2A (converted). How it is done:
(§1) The binding activity of compounds of this invention in vitro was determined as follows. Duplicate determinations of 5-HT6 ligand affinity were made by competing for binding of [^3H]LSD in cell membranes derived from HEK293 cells stably expressing recombinant human 5-HT6 receptor. Duplicate determinations of 5-HT2A ligand affinity were made by competing for binding of [^3H]Ketanserin (3-(2-(4-(4-fluorobenzoyl)piperidinol)ethyl)-2,4(1H,3H)-quinazolinedione) in cell membranes derived from CHO-K1 cells stably expressing recombinant human 5-HT2A receptor. Membranes were prepared from HEK 293 cell lines by the method described by Monsma et al., Molecular Pharmacology, Vol. 43 pp. 320–327 (1993), and from CHO-K1cell lines as described by Bonhaus et al., Br J Pharmacol. Jun; 115(4):622–8 (1995).
(§2) For estimation of affinity at the 5-HT6 receptor, all determinations were made in assay buffer containing 50 mM Tris-HCl, 10 mM MgSO4, 0.5 mM EDTA, 1 mM ascorbic acid, pH 7.4 at 37° C., in a 250 microliter reaction volume. […]
(§3) Assay tubes containing [^3H] […] Bound[^3H]LSD or [^3H]Ketanserin were determined as radioactive counts per minute using Packard TopCount.
(§4) Displacement of [^3H]LSD or [^3H]Ketanserin from the binding sites was quantified by fitting concentration-binding data to a 4-parameter logistic equation: […]

The target of series [2] is T2, recombinant human 5-HT6 receptor (Homo sapiens, UniProt P50406).
T2 construct: expressed in transfected cells; membranes
In words: Radioligand binding, [3H]LSD competition in HEK293 cell membranes. The conditions noted are these: [3H]LSD displacement, pH 7.4, 37° C., approximate value, read-out: pKi for 5-HT6 (converted). The method, then:
as §1, §2, §3, §4

Counter-ions that a name gives are not always drawn.

T1 sequence (P28223 whole entry): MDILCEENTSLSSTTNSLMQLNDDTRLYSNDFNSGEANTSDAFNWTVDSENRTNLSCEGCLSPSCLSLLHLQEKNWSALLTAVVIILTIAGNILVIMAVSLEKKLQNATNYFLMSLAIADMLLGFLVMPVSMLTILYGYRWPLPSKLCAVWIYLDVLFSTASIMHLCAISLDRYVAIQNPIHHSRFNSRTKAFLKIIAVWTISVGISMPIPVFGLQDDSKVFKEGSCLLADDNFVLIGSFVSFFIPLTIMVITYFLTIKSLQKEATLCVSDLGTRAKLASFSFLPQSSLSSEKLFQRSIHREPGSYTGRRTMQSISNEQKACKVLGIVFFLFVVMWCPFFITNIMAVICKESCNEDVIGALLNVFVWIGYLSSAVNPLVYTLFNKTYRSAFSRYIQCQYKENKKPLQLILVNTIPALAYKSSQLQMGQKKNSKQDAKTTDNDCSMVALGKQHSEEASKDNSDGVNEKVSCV
T2 sequence (P50406 whole entry): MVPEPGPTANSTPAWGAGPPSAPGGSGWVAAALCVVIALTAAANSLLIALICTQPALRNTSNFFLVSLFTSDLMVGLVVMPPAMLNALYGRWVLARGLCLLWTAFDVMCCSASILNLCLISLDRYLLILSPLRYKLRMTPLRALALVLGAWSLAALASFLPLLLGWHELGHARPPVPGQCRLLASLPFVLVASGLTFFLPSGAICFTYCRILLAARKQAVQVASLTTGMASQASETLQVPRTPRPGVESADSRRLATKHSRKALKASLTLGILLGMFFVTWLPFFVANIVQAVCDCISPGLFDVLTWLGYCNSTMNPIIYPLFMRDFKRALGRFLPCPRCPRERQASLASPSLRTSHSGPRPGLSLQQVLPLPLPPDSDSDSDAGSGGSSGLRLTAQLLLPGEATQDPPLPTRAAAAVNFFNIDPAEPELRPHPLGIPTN

Regarding `O=C1c2cccc(N3CCNCC3)c2Oc2ccccc2N1Cc1c[nH]c2ccccc12` [Compound 37, 10-(1H-Indol-3-ylmethyl)-4-piperazin-1-yl-10H-dibenzo[b,f][1,4]oxazepin-11-one], the melting point was 98 to 99 °C. As for `O=C1c2cccc(N3CCNCC3)c2Sc2ccccc2N1Cc1ccccc1` (as salt: HCl) [Compound 20, 10-Benzyl-4-piperazin-1-yl-10H-dibenzo[b,f][1,4]thiazepin-11-one], the melting point was in the range of 301 to 302 °C. Regarding `O=C1c2cccc(N3CCNCC3)c2Oc2c(F)cccc2N1CCc1ccccc1` [Compound 26, 6-Fluoro-10-phenethyl-4-piperazin-1-yl-10H-dibenzo[b,f][1,4]oxazepin-11-one,hydrochloride], in series [1], the Ki was ~1.32 nM. For `O=C1c2cccc(N3CCNCC3)c2Nc2ccccc2N1Cc1ccccc1` (as salt: HCl) [Compound 13, 10-Benzyl-4-piperazin-1-yl-5,10-dihydro-dibenzo[b,e][1,4]diazepin-11-one], the melting point was 322 to 323 °C (dec.).

In the case of `O=C1c2cccc(N3CCNCC3)c2Oc2ccccc2N1Cc1ccccc1` (as salt: HCl) [Compound 1, 10-Benzyl-4-piperazin-1-yl-10H-dibenzo[b,f][1,4]oxazepin-11-one], the melting point was 198 to 199 °C. `O=C1c2cccc(N3CCNCC3)c2Oc2ccc(F)cc2N1Cc1cccc(C(F)(F)F)c1` [Compound 28, 8-Fluoro-4-piperazin-1-yl-10-(3-trifluoromethyl-benzyl)-10H-dibenzo[b,f][1,4]oxazepin-11-one]: the Ki in series [2] is ~0.282 nM.
